Columns and labels:
[1] = tested on: primary hippocampal neurons; test: Dendritic spine density in cultured hippocampal neurons (DiOlistic labeling); assay type: cell-based, rat; conditions: oAβ for 24 hours
Experimental: The protocol for diolistic labeling of neurons was adapted from Gan et al. 2000 and Gan et al. 2009. Briefly, 100 mg of tungsten particles (1.1 μm diameter; Bio-Rad) were thoroughly precipitated with 5.0 mg of lipophilic dye (DiI; ThermoFisher) and dissolved in 100 μl of methylene chloride. Dye-coated particles were shot 2-3 times into the cells using the Helios gene gun system (Bio-Rad) and left in 0.1 M PBS overnight to allow dye diffusion along neuronal processes. Cells were post-fixed with 4% paraformaldehyde (Pierce) for 1 hour to preserve staining, then mounted onto glass slides using Gel Mount (Biomeda) and stored at 4° C. in the dark.
Labeled neurons were imaged using the Laser Scanning Microscope (LSM) 510 Meta confocal microscope (Zeiss), equipped with 40×1.3 NA and 100×1.4 NA oil-immersion objectives. The NIH Image software program ImageJ was used the quantify diolistic-labeled cultured neurons. An average of 12 compressed images (20 μm thick) consisting of pyramidal neurons were quantified for each treatment. Spines were counted with NeuronStudio software in a blinded manner and spine density was represented in number of spine per μm dendritic length. Statistical analysis was performed using the statistics package GraphPad Prism.
To further test whether increasing Ube3A could rescue the effects of oAβ, cultured primary hippocampal neurons (14 DIV) were pretreated with 300 nM of TOP or control PBS. The neurons were then treated with oAβ for 24 hours, and whole cell lysates prepared for Western blot analysis, or fixed for microscopy.

amyloid plaques = test: Amyloid plaque histology (6E10) in J20 mice; assay type: in vivo; conditions: TOP treated J20 mice at 12.5 months of age vs J20 mice treated with PBS
Excerpt: Immunolabeling was done on 30 μm brain sections from the J20 TOP treated mice and PBS treated wild-type and J20 mice. Staining was done using the anti-Aβ antibody 6E10 (Covance) and GFAP (Cell Signaling). Plaque load and astrocytosis were quantified using ImageJ. Total plaque area was expressed as a percentage of the total hippocampal area.

Ephexin-5 = test: Western blot of Ephexin-5 in cultured primary hippocampal neurons; assay type: cell-based, rat
Experimental: (§1) Hippocampal neuron cultures from both male and female rat embryos (E17-18) were prepared following a slightly modified version of the method of Brewer et al. 1996. Hippocampal neurons were kept in culture at 37° C. with 5% CO2 in Neurobasal medium (ThermoFisher) with B27 (ThermoFisher) supplement and Glutamax (ThermoFisher) and plated at a density of 2.5×10^5 cell/ml on dishes coated with poly-D-lysine (ThermoFisher). For the experiments, neurons were used after 14-21 days in vitro (DIV). Rat neuroblastoma B35 cells were cultured and maintained in DMEM (ThermoFisher) supplemented with 10% fetal bovine serum (FBS; Invitrogen) and Glutamax (ThermoFisher).
(§2) Whole frozen mouse hippocampi, human brain specimens, and cultured cells were homogenized in RIPA buffer (ThermoFisher) supplemented with protease and phosphatase inhibitor cocktail (ThermoFisher), using a Teflon dounce homogenizer and centrifuged at 14,000 rpm for 10 minutes at 4° C. Supernatants were collected, normalized by BCA assay (ThermoFisher), and prepared for loading using sample buffer (SB) 4× (ThermoFisher) and dithiothreitol (DTT) 10× (ThermoFisher).
(§3) Cultured primary hippocampal neurons (14 DIV) were treated with 300 nM of a topoisomerase type I inhibitor, topotecan (TOP) or a vehicle control as described in Huang et al. 2012. Some cells were treated for 24 hours and some for 72 hours. All cells were harvested and whole cell lysates prepared for Western blot analysis of Ube3A and Ephixin-5.

J20 mice = test: Long-term potentiation recordings, hippocampal slices of J20 mice; assay type: in vivo; conditions: single TOP injection 275 μg, vs PBS treated J20 mice
Experimental: Long-term potentiation (LTP) recordings were performed by positioning glass electrodes filled with artificial cerebrospinal fluid (ACSF) in the CA1 stratum radiatum to record Field Excitatory Post-Synaptic Potentials (fEPSPs) evoked by local stimulation (0.1 ms) of Schaffer collateral fibers using a bipolar concentric electrode placed laterally to the recoding electrode (approximately 150 μm). Following a steady baseline of 15 minutes, potentiation was induced with three theta-burst stimulations (TBS; 15 second interval), each one involving a single train of 10 bursts at 5 Hz, where each burst was composed of four pulses at 100 Hz (strong stimulation). The fEPSP slopes following tetanic stimulation were normalized to the average of the slopes of the fEPSPs acquired during the baseline.
Controls were wild-type mice and J20 mice injected with PBS.

RhoA-GTP = test: Rho-GTPase activity pull-down assay in hippocampal neurons; assay type: cell-based, rat
Experimental: Rho-GTPase pull-down assays were performed following the manufacturer's protocol (Cytoskeleton, Inc.). Briefly, cells were washed once with ice-cold PBS and lysed with RIPA/M-PER buffer (1:1; ThermoFisher). Lysates were incubated on ice for 5 minutes, and centrifuged (12,000 g) for 5 minutes. 30 μl was used for input and the remaining lysates were incubated with Rhotekin-RBD (RhoA) or PAK-RBD (Rac1) protein beads (25 μl) by rotating for 1 hour at 4° C. Beads were washed with ice-cold PBS (500 μl, 3×) and collected, and bound proteins were eluted with 1× sample buffer (30 μl). Input and eluted samples were then analyzed by gel electrophoresis and Western blotting using either a RhoA or Rac1-specific antibody.
To test whether increasing Ube3A could rescue the effects of oAβ, cultured primary hippocampal neurons (14 DIV) were pretreated with 300 nM of TOP or control PBS. At day 3 the cells were treated with oligomeric Aβ for 6 hours and whole cell lysates prepared for Western blot analysis of Ube3A protein levels and levels of active GTPase levels including RhoA-GTP, Rac1-GTP and Cdc42-GTP.

Ube3A = test: Western blot of Ube3A protein in cultured primary hippocampal neurons; assay type: cell-based, rat
Experimental: as §1, §2, §3

GluR1 = test: Surface GluR1 in hippocampal neurons (biotinylated surface Western blot, immunostaining); assay type: cell-based, rat; conditions: hippocampal neurons treated with Aβ
Experimental: Cells were fixed in PFA (4%) in […] PBS for 10 minutes at room temperature. Permeabilization was performed using 0.4% Triton X-100 (Sigma) in PBS for 20 minutes. Then, cells were incubated in anti-GluR1 primary antibody (Millipore) in Superblock (Thermo Scientific) with 0.1% Triton X-100 for 12 hours at 4° C. Cells were washed with PBS, and then incubated in goat anti-mouse Alexa 568 in Superblock with 0.1% Triton X-100 for 1 hour at RT. Then cells were mounted onto glass slides using Gel Mount (Biomeda).
The consequences of upregulation of Arc and Ephexin-5 are well characterized. In the case of Arc, one its key function is to regulate postsynaptic trafficking of AMPA receptor subunits, and to regulate spine morphology and network stability (Korb and Finkbeiner 2011).

Ephexin-1 = test: Levels or activities of Ephexin-1 in hippocampal neurons; assay type: cell-based, rat; conditions: hippocampal neurons treated with oAβ (results not shown)
[2] = neurons pretreated with 300 nM TOP, oligomeric Aβ for 6 hours at day 3
[3] = neurons 21 DIV, oAβ for 24 hours

RhoA activity (RhoA-GTP; [2])	Compound	protection against oAβ-induced loss of dendritic spine density ([1]; neurons pretreated with 300 nM TOP)	accumulation of amyloid plaques (amyloid plaques)	Ephexin-5 level (Ephexin-5; neurons 14 DIV, 300 nM TOP, vs vehicle)	LTP in hippocampal slices (J20 mice)	Ube3A protein levels (Ube3A; neurons 14 DIV, 300 nM TOP, 24 or 72 hours, vs vehicle)	Ube3A protein levels (Ube3A; [2])	dendritic spine density ([1]; neurons 21 DIV)	levels of surface-expressed GluR1 subunit (GluR1)	levels of Ephexin-5 protein (Ephexin-5; hippocampal neurons, Aβ for 8-10 hours)	levels of active RhoA-GTP (RhoA-GTP; [3])	levels or activities of Ephexin-1 (Ephexin-1)	levels of Ube3A protein (Ube3A; [3])
decreased	CC[C@@]1(O)C(=O)OCc2c1cc1n(c2=O)Cc2cc3c(CN(C)C)c(O)ccc3nc2-1 [TOP, topotecan]	complete protection	approximately equal accumulation	significant decrease	Enhancement	increased as early as 24 hours and persisted up to three days	increased						
	oAβ: synthetic soluble oligomeric Aβ1-42							significant decrease	significant decrease	significant increase	significant increase	no observation of any differences	significant decrease

— patent US20200138921A1, “METHODS OF PREVENTING AND TREATING DISEASES CHARACTERIZED BY SYNAPTIC DYSFUNCTION AND NEURODEGENERATION INCLUDING ALZHEIMER'S DISEASE” (The Trustees of Columbia University in the City of New York, priority 2017, published 2020)
